Measurements from ChEMBL document CHEMBL1136226, “Design and synthesis of new benzimidazole-arylpiperazine derivatives acting as mixed 5-HT1A/5-HT3 ligands” (Bioorg Med Chem Lett, 2003).

Key:
[1] = target: T1, Serotonin 3 (5-HT3) receptor (Rattus norvegicus, UniProt P35563+Q9JJ16); assay: Binding affinity for 5-HT3 receptor by displacement of [3H]-LY 278584 in rat cerebral cortex membranes; type: cell membranes, Membrane
T1 sequence (P35563 whole entry): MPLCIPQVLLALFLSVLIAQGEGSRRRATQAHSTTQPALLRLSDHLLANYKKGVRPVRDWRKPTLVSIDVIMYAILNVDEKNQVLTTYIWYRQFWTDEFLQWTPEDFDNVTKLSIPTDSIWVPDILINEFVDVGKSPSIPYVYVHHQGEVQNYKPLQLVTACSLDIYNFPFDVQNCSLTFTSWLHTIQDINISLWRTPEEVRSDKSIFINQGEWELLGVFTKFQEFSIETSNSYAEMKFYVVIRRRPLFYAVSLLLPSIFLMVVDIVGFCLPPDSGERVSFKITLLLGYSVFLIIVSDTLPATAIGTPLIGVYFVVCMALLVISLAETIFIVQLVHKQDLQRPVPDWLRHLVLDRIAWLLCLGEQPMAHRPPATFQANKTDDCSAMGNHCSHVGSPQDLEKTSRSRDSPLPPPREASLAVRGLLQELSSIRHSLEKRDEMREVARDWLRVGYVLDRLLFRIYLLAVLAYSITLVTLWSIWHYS
T1 sequence (Q9JJ16 whole entry): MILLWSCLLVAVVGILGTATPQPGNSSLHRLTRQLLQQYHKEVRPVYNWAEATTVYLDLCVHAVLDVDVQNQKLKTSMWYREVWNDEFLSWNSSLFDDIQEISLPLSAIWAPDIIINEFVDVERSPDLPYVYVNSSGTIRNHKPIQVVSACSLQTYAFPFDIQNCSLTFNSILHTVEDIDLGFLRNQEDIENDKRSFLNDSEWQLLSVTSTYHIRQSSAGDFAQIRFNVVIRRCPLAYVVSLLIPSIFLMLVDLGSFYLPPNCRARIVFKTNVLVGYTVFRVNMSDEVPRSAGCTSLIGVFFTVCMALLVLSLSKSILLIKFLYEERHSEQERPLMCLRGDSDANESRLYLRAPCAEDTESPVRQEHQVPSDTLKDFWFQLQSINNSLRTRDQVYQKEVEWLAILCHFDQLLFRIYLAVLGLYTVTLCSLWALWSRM

[2] = target: T2, 5-hydroxytryptamine receptor 1A (Rattus norvegicus, UniProt P19327); assay: Displacement of [3H]8-OH-DPAT from 5-hydroxytryptamine 1A receptor of rat cerebral cortex membranes; type: cell membranes, Membrane
T2 sequence (P19327 whole entry): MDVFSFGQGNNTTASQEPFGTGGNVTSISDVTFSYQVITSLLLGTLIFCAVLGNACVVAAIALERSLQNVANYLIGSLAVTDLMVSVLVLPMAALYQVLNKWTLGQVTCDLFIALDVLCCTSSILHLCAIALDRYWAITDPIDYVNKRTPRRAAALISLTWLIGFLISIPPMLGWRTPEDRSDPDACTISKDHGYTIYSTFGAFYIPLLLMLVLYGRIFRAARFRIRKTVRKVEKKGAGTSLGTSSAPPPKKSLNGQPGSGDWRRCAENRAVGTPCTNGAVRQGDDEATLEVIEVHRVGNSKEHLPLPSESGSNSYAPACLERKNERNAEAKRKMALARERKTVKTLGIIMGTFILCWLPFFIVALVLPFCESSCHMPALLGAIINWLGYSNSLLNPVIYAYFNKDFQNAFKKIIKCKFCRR

[3] = organism: Cavia porcellus; assay: Blockade of isolated longitudinal muscle myenteric plexus contraction from guinea-pig ileum; type: functional; settings: Muscle tissue

SMILES | Ki [1] | Ki [2] | IC50 [3]
CC(C)Oc1ccccc1N1CCN(Cc2nc3cccc(C(=O)NC4CN5CCC4CC5)c3[nH]2)CC1 (centres undefined) | 0.0621 µM | 0.0344 µM | –
Cc1nccn1CC1CCc2c(c3ccccc3n2C)C1=O (centres undefined) [ONDANSETRON] | – | – | 0.24 µM
O=C(NC1CN2CCC1CC2)c1cccc2[nH]c(CN3CCN(c4cccc(Cl)c4)CC3)nc12 (centres undefined) | 0.0183 µM | > 10 µM | –
O=C(NC1CN2CCC1CC2)c1cccc2[nH]c(CN3CCN(c4cccc5ccccc45)CC3)nc12 (centres undefined) | 0.0325 µM | > 1 µM | –
O=C(NC1CN2CCC1CC2)c1cccc2nc(CN3CCN(c4ccccc4)CC3)[nH]c12 (centres undefined) | 0.0231 µM | > 1 µM | –
O=C(NC1CN2CCC1CC2)c1cccc2[nH]c(CN3CCN(c4ccc5c(c4)OCO5)CC3)nc12 (centres undefined) | 0.024 µM | 0.467 µM | –
O=C(NC1CN2CCC1CC2)c1cccc2nc(CN3CCN(c4cccc(C(F)(F)F)c4)CC3)[nH]c12 (centres undefined) | 0.0239 µM | > 10 µM | –
O=C(NC1CN2CCC1CC2)c1cccc2nc(CN3CCN(c4cccc5nc[nH]c45)CC3)[nH]c12 (centres undefined) | > 1 µM | 0.148 µM | –
CCCCOc1ccccc1N1CCN(Cc2nc3c(C(=O)NC4CN5CCC4CC5)cccc3[nH]2)CC1 (centres undefined) | 0.0151 µM | 0.0459 µM | –
CCOc1ccccc1N1CCN(Cc2nc3c(C(=O)NC4CN5CCC4CC5)cccc3[nH]2)CC1 (centres undefined) | 0.0272 µM | 0.018 µM | 0.19 µM
CCCOc1ccccc1N1CCN(Cc2nc3c(C(=O)NC4CN5CCC4CC5)cccc3[nH]2)CC1 (centres undefined) | 0.0246 µM | 0.0561 µM | –
COc1ccccc1N1CCN(Cc2nc3cccc(C(=O)NC4CN5CCC4CC5)c3[nH]2)CC1 (centres undefined) | 0.0103 µM | 0.15 µM | –
